This note sets out measurements from ChEMBL document CHEMBL5678812, “Inhibitors of p21-activated kinases (PAKs)” (J Med Chem, 2015).

≈ marks a conversion by molar mass, not a printed value. Where only a bound is given, the exact number is not on record here.

In general, Ki refers to the dissociation constant of the complex between target and ligand, obtained from inhibition or displacement. A word on the IC50: it is the point on the concentration scale where inhibition reaches its midpoint. Usually Kd stands for a measure of binding affinity in units of concentration. A word on the Papp A→B: it is the apparent permeability from the apical to the basolateral side of a cell layer. As a reminder, the EC50 is the concentration giving half of the maximal effect. Usually bioavailability stands for the share of a dose that reaches the circulation, judged against a reference dose that is usually intravenous. One may read the CL/F as the apparent clearance, not corrected for the fraction that reaches the circulation. As usually defined, the half-life is the time in which the quantity being followed falls by half. The low end stands for fast loss, the high end for slow loss. Usually inhibition stands for the percentage by which the read-out fell short of the control. A lower inhibition goes with a weak effect. Usually TGI stands for the reduction of tumour growth relative to the control group.

The target of data set [1] is T1, Serine/threonine-protein kinase PAK 4 (Homo sapiens, UniProt O96013). Briefly: Inhibition of PAK4 (unknown origin) assessed as inhibition constant.
Target sequence in this assay (O96013 whole entry): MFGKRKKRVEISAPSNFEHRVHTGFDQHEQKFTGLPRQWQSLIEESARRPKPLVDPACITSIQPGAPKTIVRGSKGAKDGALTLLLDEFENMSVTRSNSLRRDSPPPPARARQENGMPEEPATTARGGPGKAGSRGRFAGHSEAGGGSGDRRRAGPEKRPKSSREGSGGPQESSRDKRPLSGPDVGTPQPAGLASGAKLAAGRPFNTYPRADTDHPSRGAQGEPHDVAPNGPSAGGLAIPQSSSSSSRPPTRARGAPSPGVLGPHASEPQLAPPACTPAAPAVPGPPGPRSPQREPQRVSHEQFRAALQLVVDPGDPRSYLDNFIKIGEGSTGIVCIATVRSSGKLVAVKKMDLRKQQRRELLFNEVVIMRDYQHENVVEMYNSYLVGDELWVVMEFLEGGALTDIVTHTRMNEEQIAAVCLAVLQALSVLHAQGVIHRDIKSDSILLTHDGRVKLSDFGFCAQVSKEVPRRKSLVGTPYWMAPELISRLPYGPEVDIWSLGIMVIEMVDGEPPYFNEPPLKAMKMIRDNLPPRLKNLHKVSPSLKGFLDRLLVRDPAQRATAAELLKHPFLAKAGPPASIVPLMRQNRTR
For data set [2], the target named is T1, Serine/threonine-protein kinase PAK 4. Kind of data set: Inhibition of PAK4 (unknown origin).
Target sequence in this assay (O96013 whole entry): as above
In data set [3] the target is Serine/threonine-protein kinase PAK 2 (Homo sapiens, UniProt Q13177). Briefly: Binding affinity to PAK2 (unknown origin) assessed as dissociation constant.
Data set [4] has as its target Serine/threonine-protein kinase PAK 5 (Homo sapiens, UniProt Q9P286). Briefly: Binding affinity to PAK7 (unknown origin) assessed as dissociation constant.
The target in data set [5] is Serine/threonine-protein kinase PAK 3 (Homo sapiens, UniProt O75914). Briefly: Binding affinity to PAK3 (unknown origin) assessed as dissociation constant.
The target of data set [6] is T1, Serine/threonine-protein kinase PAK 4. Kind of data set: Binding affinity to PAK4 (unknown origin) assessed as dissociation constant.
Target sequence in this assay (O96013 whole entry): as above
In data set [7] the test system is HCT-116. Briefly: Antitumor activity against human HCT-116 cells xenografted in mouse assessed as downregulation of GEF-H1 phosphorylation at 25 mg/kg, po measured after 18 hrs. The format is functional. (In general: In xenograft studies the graft and the host belong to different species.)
The nature of data set [8]: Apparent permeability across apical to basolateral side in human Caco-2 cells. The format is ADME, cell-based.
The target of data set [9] is Serine/threonine-protein kinase PAK 4 (Mus musculus, UniProt Q8BTW9). Briefly: Inhibition of PAK4 in mouse NIH3T3 cells assessed as reduction in phosphorylated GEF-H1 accumulation incubated for 30 mins by immunoblotting analysis. The format is cell-based. Background: Immunoblotting shows a protein as a band on a membrane.
In data set [10] the test system is HCT-116. Briefly: Antitumor activity against human HCT-116 cells xenografted in mouse assessed as tumor growth inhibition at 12 mg/kg, po. The data set is classed as functional. Conditions: read-out: TGI.
The subject of data set [11] is HCT-116. Briefly: Antitumor activity against human HCT-116 cells xenografted in mouse assessed as tumor growth inhibition at 20 mg/kg, po. Conditions: read-out: TGI. The data set is classed as functional.
The nature of data set [12]: Oral bioavailability in dog at 10 mg/kg. The format is ADME, organism-based, Canis lupus familiaris. The note with it: in vivo.
Data set [13] deals with M24met. Kind of data set: Antitumor activity against human M24met cells xenografted in mouse assessed as tumor growth inhibition at 15 mg/kg, po. The format is functional. Conditions: read-out: TGI.
Data set [14] is described as follows: Clearance in dog at 10 mg/kg, po. The format is ADME, organism-based, Canis lupus familiaris. The note with it: in vivo.
A short description of data set [15]: Half life in dog at 10 mg/kg, po. The data set is classed as ADME, organism-based, Canis lupus familiaris. The note with it: in vivo.
Data set [16] can be described thus: Clearance in rat at 10 mg/kg, po. Conditions: in vivo. The data set is classed as ADME, organism-based.
Data set [17] deals with T1, Serine/threonine-protein kinase PAK 4. Kind of data set: Inhibition of PAK4 (unknown origin) at 10 uM relative to control.
Target sequence in this assay (O96013 whole entry, looked up): as the sequence (O96013 whole entry) above
The target is the same in data set [18]. Briefly: Inhibition of PAK4 (unknown origin) using 5-FAM-AhxKKRNRRLSVA-amide as substrate incubated for 90 mins by caliper off-chip mobility shift assay.
Target sequence in this assay (O96013 whole entry): as above
Data set [19] in a line: Kinetic solubility of compound. The format is physicochemical. The note with it: read-out: Kinetic_solubility.
Data set [20] has as its system MDA-MB-231. Briefly: Antitumor activity against human MDA-MB-231 cells xenografted in mouse assessed as tumor growth inhibition at 7.5 to 30 mg/kg, po measured for 9 to 18 days. The data set is classed as functional. Conditions: dose 7.5-30 mg/kg, time 9-18 day.
In data set [21] the test system is COLO 205. Kind of data set: Antitumor activity against human COLO 205 cells xenografted in mouse assessed as tumor growth inhibition at 7.5 to 30 mg/kg, po measured for 9 to 18 days. The format is functional. The note with it: dose 7.5-30 mg/kg, time 9-18 day.
Data set [22] deals with Cyclin-dependent kinase 7 (Homo sapiens, UniProt P50613). Briefly: Inhibition of CDK7 (unknown origin).
Data set [23] concerns M24met. Kind of data set: Antitumor activity against human M24met cells xenografted in mouse assessed as tumor growth inhibition at 7.5 to 30 mg/kg, po measured for 9 to 18 days. The data set is classed as functional. The note with it: dose 7.5-30 mg/kg, time 9-18 day.
Data set [24] deals with A549. Briefly: Antitumor activity against human A549 cells xenografted in mouse assessed as tumor growth inhibition at 7.5 to 30 mg/kg, po measured for 9 to 18 days. The format is functional. Conditions: dose 7.5-30 mg/kg, time 9-18 day.
The target in data set [25] is Serine/threonine-protein kinase PAK 6 (Homo sapiens, UniProt Q9NQU5). Kind of data set: Inhibition of recombinant PAK6 (unknown origin).
Data set [26] can be described thus: Inhibition of p53/pin 1 (unknown origin) interaction. Details: species or system Homo sapiens.
Data set [27] relates to HCT-116. Kind of data set: Antitumor activity against human HCT-116 cells xenografted in mouse assessed as tumor growth inhibition at 7.5 to 30 mg/kg, po measured for 9 to 18 days. The format is functional. The note with it: dose 7.5-30 mg/kg, time 9-18 day.
Data set [28] deals with Tumour suppressor p53/oncoprotein Mdm2 (Homo sapiens, UniProt P04637+Q00987). Briefly: Inhibition of MDM2/p53 (unknown origin) interaction. The data set is classed as protein assay.
Data set [29] deals with T1, Serine/threonine-protein kinase PAK 4. Briefly: Inhibition of PAK4 (unknown origin) in presence of ATP by Z-LYTE enzymatic kinase assay.
Target sequence in this assay (O96013 whole entry): as above

Serine/threonine-protein kinase PAK 4 (Mus musculus, UniProt Q8BTW9), sequence (Q8BTW9 whole entry): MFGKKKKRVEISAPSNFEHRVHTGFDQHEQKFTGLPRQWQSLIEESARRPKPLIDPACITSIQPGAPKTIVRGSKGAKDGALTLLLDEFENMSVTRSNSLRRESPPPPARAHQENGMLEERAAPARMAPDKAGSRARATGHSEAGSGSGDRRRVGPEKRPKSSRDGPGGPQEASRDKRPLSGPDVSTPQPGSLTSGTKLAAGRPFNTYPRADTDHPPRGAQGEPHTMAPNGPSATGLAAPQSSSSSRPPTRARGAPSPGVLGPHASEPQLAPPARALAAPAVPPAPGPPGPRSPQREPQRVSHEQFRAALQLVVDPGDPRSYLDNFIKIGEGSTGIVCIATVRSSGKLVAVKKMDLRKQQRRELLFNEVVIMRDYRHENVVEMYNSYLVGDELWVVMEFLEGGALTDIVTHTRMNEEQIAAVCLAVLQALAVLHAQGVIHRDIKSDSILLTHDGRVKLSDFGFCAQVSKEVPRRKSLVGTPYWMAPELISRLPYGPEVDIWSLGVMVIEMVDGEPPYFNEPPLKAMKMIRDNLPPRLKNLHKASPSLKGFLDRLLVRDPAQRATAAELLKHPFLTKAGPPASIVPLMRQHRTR
Serine/threonine-protein kinase PAK 2, sequence (Q13177 whole entry): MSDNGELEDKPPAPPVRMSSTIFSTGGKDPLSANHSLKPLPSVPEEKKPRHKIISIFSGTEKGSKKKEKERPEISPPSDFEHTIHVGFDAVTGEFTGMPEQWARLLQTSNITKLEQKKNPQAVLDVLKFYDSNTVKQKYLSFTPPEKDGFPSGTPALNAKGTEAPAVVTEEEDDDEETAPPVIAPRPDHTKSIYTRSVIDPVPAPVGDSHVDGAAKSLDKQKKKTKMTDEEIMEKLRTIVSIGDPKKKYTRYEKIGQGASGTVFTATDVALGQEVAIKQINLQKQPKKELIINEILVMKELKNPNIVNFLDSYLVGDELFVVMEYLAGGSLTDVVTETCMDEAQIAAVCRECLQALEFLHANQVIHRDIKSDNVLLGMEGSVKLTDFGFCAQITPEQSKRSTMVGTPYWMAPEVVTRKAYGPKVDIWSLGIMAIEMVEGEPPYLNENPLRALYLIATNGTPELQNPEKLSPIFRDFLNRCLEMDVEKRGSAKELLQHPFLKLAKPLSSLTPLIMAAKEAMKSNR
Serine/threonine-protein kinase PAK 5, sequence (Q9P286 whole entry): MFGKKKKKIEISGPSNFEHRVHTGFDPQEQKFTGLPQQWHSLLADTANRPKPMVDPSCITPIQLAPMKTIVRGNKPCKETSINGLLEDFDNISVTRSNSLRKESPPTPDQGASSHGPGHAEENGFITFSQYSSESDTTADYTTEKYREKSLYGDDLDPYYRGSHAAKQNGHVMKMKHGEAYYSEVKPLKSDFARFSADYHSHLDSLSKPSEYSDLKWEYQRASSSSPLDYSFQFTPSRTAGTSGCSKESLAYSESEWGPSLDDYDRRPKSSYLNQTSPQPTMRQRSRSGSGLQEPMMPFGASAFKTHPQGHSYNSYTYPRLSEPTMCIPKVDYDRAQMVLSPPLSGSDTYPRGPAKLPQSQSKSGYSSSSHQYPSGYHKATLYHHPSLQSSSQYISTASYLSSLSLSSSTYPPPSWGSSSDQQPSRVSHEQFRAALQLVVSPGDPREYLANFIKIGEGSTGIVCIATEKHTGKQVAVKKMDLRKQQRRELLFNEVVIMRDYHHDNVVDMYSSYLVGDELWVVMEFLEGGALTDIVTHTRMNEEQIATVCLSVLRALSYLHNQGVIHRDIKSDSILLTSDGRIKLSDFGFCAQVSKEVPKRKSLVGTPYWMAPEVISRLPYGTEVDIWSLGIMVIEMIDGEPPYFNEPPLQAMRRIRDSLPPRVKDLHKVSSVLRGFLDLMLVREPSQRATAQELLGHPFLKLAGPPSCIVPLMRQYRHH
Tumour suppressor p53/oncoprotein Mdm2, sequence (P04637 whole entry): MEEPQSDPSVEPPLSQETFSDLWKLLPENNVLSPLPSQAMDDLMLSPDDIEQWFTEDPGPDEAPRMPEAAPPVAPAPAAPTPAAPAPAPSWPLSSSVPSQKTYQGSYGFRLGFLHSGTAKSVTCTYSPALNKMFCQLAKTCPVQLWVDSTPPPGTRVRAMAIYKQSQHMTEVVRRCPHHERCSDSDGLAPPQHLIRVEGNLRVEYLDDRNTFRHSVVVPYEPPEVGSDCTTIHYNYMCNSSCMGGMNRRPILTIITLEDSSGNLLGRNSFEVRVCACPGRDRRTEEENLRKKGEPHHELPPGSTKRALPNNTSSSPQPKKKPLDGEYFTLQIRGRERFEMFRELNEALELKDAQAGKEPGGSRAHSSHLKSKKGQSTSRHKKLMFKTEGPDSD
Tumour suppressor p53/oncoprotein Mdm2, sequence (Q00987 whole entry): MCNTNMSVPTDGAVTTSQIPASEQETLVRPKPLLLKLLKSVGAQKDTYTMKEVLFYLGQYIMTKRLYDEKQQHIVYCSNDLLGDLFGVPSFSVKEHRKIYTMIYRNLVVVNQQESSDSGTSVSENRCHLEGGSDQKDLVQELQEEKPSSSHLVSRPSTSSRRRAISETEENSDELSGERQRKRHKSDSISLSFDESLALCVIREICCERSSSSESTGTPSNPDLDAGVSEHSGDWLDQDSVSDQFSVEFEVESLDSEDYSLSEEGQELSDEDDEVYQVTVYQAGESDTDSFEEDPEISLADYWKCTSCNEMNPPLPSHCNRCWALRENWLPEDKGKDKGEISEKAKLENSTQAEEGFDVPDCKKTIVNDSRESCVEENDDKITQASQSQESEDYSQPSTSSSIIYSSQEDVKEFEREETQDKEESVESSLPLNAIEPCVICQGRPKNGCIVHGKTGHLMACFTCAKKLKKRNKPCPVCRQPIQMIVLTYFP
Serine/threonine-protein kinase PAK 3, sequence (O75914 whole entry): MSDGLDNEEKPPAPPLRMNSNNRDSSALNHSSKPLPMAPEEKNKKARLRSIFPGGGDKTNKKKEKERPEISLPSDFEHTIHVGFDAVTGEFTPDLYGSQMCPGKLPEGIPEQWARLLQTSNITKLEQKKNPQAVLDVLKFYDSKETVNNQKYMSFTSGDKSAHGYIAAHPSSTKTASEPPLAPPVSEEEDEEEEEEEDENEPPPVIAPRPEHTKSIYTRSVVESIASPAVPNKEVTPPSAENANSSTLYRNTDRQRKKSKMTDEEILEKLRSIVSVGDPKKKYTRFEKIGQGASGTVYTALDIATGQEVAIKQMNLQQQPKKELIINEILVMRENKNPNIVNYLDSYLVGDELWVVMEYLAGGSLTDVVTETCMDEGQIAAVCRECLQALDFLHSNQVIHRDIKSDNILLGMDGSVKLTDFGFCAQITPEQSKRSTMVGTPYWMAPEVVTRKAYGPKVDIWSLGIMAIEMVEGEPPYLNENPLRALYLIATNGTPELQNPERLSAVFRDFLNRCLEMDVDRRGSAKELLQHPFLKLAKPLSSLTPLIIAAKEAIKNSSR
Cyclin-dependent kinase 7, sequence (P50613 whole entry): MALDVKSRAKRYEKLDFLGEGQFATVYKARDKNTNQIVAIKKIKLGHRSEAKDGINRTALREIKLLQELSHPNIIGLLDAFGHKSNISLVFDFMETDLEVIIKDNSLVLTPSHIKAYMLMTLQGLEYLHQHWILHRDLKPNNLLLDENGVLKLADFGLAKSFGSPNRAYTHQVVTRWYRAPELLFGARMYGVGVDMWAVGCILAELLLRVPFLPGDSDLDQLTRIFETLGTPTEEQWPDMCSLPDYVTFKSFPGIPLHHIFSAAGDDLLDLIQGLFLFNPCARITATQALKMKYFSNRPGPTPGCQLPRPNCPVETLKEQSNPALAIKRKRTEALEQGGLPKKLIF

As for `N[C@@H]1[C@H]2CN(c3nc(Nc4cc(C5CC5)[nH]n4)c4sccc4n3)C[C@@H]12`, the inhibitory constant (Ki) in data set [1] worked out at 4 nM.

`CCn1c(=O)c(-c2ccc(-c3noc(C)n3)cc2Cl)cc2cnc(Nc3ccc(C4CCN(C)CC4)cc3)nc21` had an IC50 in [2] of 960 nM.

Turning to `CCN1c2ccc(F)cc2N=C(NC2CCN(C(=O)NC(C)(C)C)C2)c2cc(Cl)ccc21` (stereo not given), the equilibrium dissociation constant (Kd) in data set [3] is 1100 nM; in [4], over 40000 nM; in data set [5], over 40000 nM; in data set [6], over 40000 nM.

Turning to `CN(C)C[C@@H](NC(=O)N1Cc2c(NC(=O)c3ccccc3)n[nH]c2C1(C)C)c1ccccc1`, the Activity in [7] was about 61%. The Papp A→B in data set [8] came to 0.1 ×10⁻⁶ cm/s. Besides, the EC50 in data set [9] amounted to 32 nM.

With `CN(C)C[C@@H](OC(=O)N1Cc2c(NC(=O)C(C)(C)C)n[nH]c2C1(C)C)c1ccccc1`, the inhibition in vivo at 12 mg/kg in [10] came to 37%. In addition, in data set [11], the inhibition in vivo at 20 mg/kg was 52%. Moreover, in [12], the bioavailability turned out to be 20%. For the same compound, the inhibition in vivo at 15 mg/kg in data set [13] was found to be 68%. In data set [8], the apparent permeability from apical to basolateral (Papp A→B) worked out at 1.7 ×10⁻⁶ cm/s. For the same compound, the figures for the CL/F in data set [14] and in data set [16] were 12 mL/min/kg and 52 mL/min/kg, respectively. Further, the EC50 in data set [9] worked out at 4 nM. The compound also had a half-life in data set [15] of 2.2 h.

Take `CCn1cnc2c(Nc3cccc(Cl)c3)nc(NC3CCCCC3N)nc21` (stereo not given): the inhibition in data set [17] stood at 44%.

For the compound `O=C(c1ccccc1Cl)c1n[nH]c2ncc(-c3cnn(C4CCNCC4)c3)cc12`, in [18], the concentration for half-maximal inhibition (IC50) worked out at 550 nM.

Regarding `COc1nc(NCCc2c[nH]c3ccccc23)nc(Nc2ccc3[nH]ncc3c2)n1`, the half-inhibitory concentration (IC50) in data set [2] was determined as 790 nM.

As to `CC(C)NC(=O)N1CCC(NC2=Nc3cc(F)ccc3N(CC(F)F)c3ccc(Cl)cc32)C1` (stereo not given), in data set [3], the Kd is 400 nM. In addition, in data set [19], the solubility kinetic came out at 55 µM (≈ 26.4 µg/mL).

For the compound `CN(C)C[C@@H](NC(=O)c1ccc2[nH]nc(-c3nc4ccccc4[nH]3)c2c1)c1ccccc1`, the EC50 in data set [9] is 13 nM.

For `Cc1nc(Nc2n[nH]c3c2CN(C(=O)N[C@H](CN(C)C)c2ccccc2)C3(C)C)c2sccc2n1` [PF-03758309], the TGI in [20], in [21], in data set [23], in data set [24] and in data set [27] was over 70% throughout. For the same compound, the IC50 in [22] was 7 nM; in data set [25], about 20 nM; in data set [26] it was 5.7 nM; in data set [28], 5.6 nM.

Turning to `CN1CCN(C(=O)N2Cc3c(NC(=O)c4cccc(Oc5ccccc5)c4)n[nH]c3C2(C)C)[C@@H](Cc2ccccc2)C1`, the EC50 in data set [9] was 810 nM.

As to `CCn1c(=O)c(-c2ccc(-c3cncs3)cc2Cl)cc2cnc(Nc3ccc(N4CCN(C)CC4)cc3)nc21`, the 50% inhibitory concentration (IC50) in data set [29] was over 10000 nM.
